# Organism: Rattus norvegicus
# Assay: Open TG-GATES - Regimen: Single
# Assay type: toxicity, organism-based, Sprague-Dawley
# Design: regimen Single, gender Male, age 6 weeks
# Conditions: in vivo, po, 0 mg/kg, route gavage, dose level Control; for APTT / Bas / Eos / Fbg / Hb / Ht / Lym / MCH / MCHC / MCV / Mono / Neu / PT / Plat / RBC / Ret / WBC: tissue Blood; for KIDNEY_L / KIDNEY_R / KIDNEY_TOTAL: tissue Kidney; for LIVER: tissue Liver; for A/G / ALP / ALT / AST / BUN / CRE / Ca / Cl / DBIL / GLC / IP / K / LDH / Na / PL / RALB / TBIL / TC / TG / TP / gamma-GTP: tissue Plasma
structure (smiles),measurement,setting,value
CC1=C(/C=C/C(C)=C/C=C/C(C)=C/CO)C(C)(C)CCC1 [RETINOL],TERMINAL_BW,3 h,195.7 g
same,APTT,3 h,22 s
same,Bas,3 h,0%
same,Eos,3 h,0.8%
same,Fbg,3 h,294.8 mg/dL
same,Hb,3 h,13.3 g/dL
same,Ht,3 h,38.7%
same,Lym,3 h,79.4%
same,MCH,3 h,21.4 pg
same,MCHC,3 h,34.5%
same,MCV,3 h,62.2 fL
same,Mono,3 h,2%
same,Neu,3 h,16.8%
same,PT,3 h,15.8 s
same,Plat,3 h,108.5 x10_4/uL
same,RBC,3 h,621.4 x10_4/ul
same,Ret,3 h,8.9%
same,WBC,3 h,97.5 x10_2/uL
same,KIDNEY_L,3 h,0.9 g
same,KIDNEY_R,3 h,0.9 g
same,KIDNEY_TOTAL,3 h,1.8 g
same,LIVER,3 h,9 g
same,A/G,3 h,1.3
same,ALP,3 h,1760.6 IU/L
same,ALT,3 h,48 IU/L
same,AST,3 h,83.6 IU/L
same,BUN,3 h,12.8 mg/dL
same,CRE,3 h,0.2 mg/dL
same,Ca,3 h,10.6 mg/dL
same,Cl,3 h,107.6 meq/L
same,DBIL,3 h,0 mg/dL
same,GLC,3 h,181 mg/dL
same,IP,3 h,8.4 mg/dL
same,K,3 h,3.8 meq/L
same,LDH,3 h,265.2 IU/L
same,Na,3 h,142.2 meq/L
same,PL,3 h,148.6 mg/dL
same,RALB,3 h,3.2 g/dL
same,TBIL,3 h,0.012 mg/dL
same,TC,3 h,77 mg/dL
same,TG,3 h,58.6 mg/dL
same,TP,3 h,5.6 g/dL
same,gamma-GTP,3 h,2.8 IU/L
same,TERMINAL_BW,6 h,199.1 g
same,APTT,6 h,21.6 s
same,Bas,6 h,0%
same,Eos,6 h,0.6%
same,Fbg,6 h,309.6 mg/dL
same,Hb,6 h,13.5 g/dL
same,Ht,6 h,38.8%
same,Lym,6 h,77%
same,MCH,6 h,21.6 pg
same,MCHC,6 h,34.9%
same,MCV,6 h,61.8 fL
same,Mono,6 h,3%
same,Neu,6 h,18.8%
same,PT,6 h,15.7 s
same,Plat,6 h,114.9 x10_4/uL
same,RBC,6 h,628.2 x10_4/ul
same,Ret,6 h,8.5%
same,WBC,6 h,113.2 x10_2/uL
same,KIDNEY_L,6 h,1 g
same,KIDNEY_R,6 h,1 g
same,KIDNEY_TOTAL,6 h,1.9 g
same,LIVER,6 h,9.2 g
same,A/G,6 h,1.3
same,ALP,6 h,1700 IU/L
same,ALT,6 h,36.8 IU/L
same,AST,6 h,67.8 IU/L
same,BUN,6 h,10.6 mg/dL
same,CRE,6 h,0.1 mg/dL
same,Ca,6 h,10.9 mg/dL
same,Cl,6 h,106.4 meq/L
same,DBIL,6 h,0.014 mg/dL
same,GLC,6 h,181.4 mg/dL
same,IP,6 h,9.9 mg/dL
same,K,6 h,4.5 meq/L
same,LDH,6 h,223.6 IU/L
same,Na,6 h,142 meq/L
same,PL,6 h,152 mg/dL
same,RALB,6 h,3.2 g/dL
same,TBIL,6 h,0.022 mg/dL
same,TC,6 h,80.6 mg/dL
same,TG,6 h,79.6 mg/dL
same,TP,6 h,5.5 g/dL
same,gamma-GTP,6 h,1.2 IU/L
same,TERMINAL_BW,9 h,198.5 g
same,APTT,9 h,21.2 s
same,Bas,9 h,0%
same,Eos,9 h,0.6%
same,Fbg,9 h,303.2 mg/dL
same,Hb,9 h,13.1 g/dL
same,Ht,9 h,38.3%
same,Lym,9 h,81.4%
same,MCH,9 h,21.6 pg
same,MCHC,9 h,34.3%
same,MCV,9 h,63 fL
same,Mono,9 h,2.6%
same,Neu,9 h,15%
same,PT,9 h,15.8 s
same,Plat,9 h,122.4 x10_4/uL
same,RBC,9 h,608.2 x10_4/ul
same,Ret,9 h,7.9%
same,WBC,9 h,88.4 x10_2/uL
same,KIDNEY_L,9 h,0.9 g
same,KIDNEY_R,9 h,0.9 g
same,KIDNEY_TOTAL,9 h,1.9 g
same,LIVER,9 h,8.3 g
same,A/G,9 h,1.2
same,ALP,9 h,1691.8 IU/L
same,ALT,9 h,33.8 IU/L
same,AST,9 h,72.2 IU/L
same,BUN,9 h,10 mg/dL
same,CRE,9 h,0.1 mg/dL
same,Ca,9 h,10.8 mg/dL
same,Cl,9 h,107.8 meq/L
same,DBIL,9 h,0 mg/dL
same,GLC,9 h,183 mg/dL
same,IP,9 h,10.8 mg/dL
same,K,9 h,4.4 meq/L
same,LDH,9 h,302 IU/L
same,Na,9 h,142 meq/L
same,PL,9 h,131.2 mg/dL
same,RALB,9 h,2.9 g/dL
same,TBIL,9 h,0.018 mg/dL
same,TC,9 h,73.4 mg/dL
same,TG,9 h,52.2 mg/dL
same,TP,9 h,5.4 g/dL
same,gamma-GTP,9 h,4.4 IU/L
same,TERMINAL_BW,24 h,205.1 g
same,APTT,24 h,20.8 s
same,Bas,24 h,0%
same,Eos,24 h,0.8%
same,Fbg,24 h,294 mg/dL
same,Hb,24 h,13.1 g/dL
same,Ht,24 h,37.7%
same,Lym,24 h,79.4%
same,MCH,24 h,21.9 pg
same,MCHC,24 h,34.8%
same,MCV,24 h,63.2 fL
same,Mono,24 h,2.6%
same,Neu,24 h,16.6%
same,PT,24 h,16.1 s
same,Plat,24 h,119.1 x10_4/uL
same,RBC,24 h,598.2 x10_4/ul
same,Ret,24 h,7.8%
same,WBC,24 h,85.8 x10_2/uL
same,KIDNEY_L,24 h,0.9 g
same,KIDNEY_R,24 h,0.9 g
same,KIDNEY_TOTAL,24 h,1.9 g
same,LIVER,24 h,9.7 g
same,A/G,24 h,1.3
same,ALP,24 h,1692.4 IU/L
same,ALT,24 h,41.8 IU/L
same,AST,24 h,71.8 IU/L
same,BUN,24 h,17.6 mg/dL
same,CRE,24 h,0.2 mg/dL
same,Ca,24 h,10.7 mg/dL
same,Cl,24 h,105.6 meq/L
same,DBIL,24 h,0.006 mg/dL
same,GLC,24 h,181.6 mg/dL
same,IP,24 h,6.4 mg/dL
same,K,24 h,4.3 meq/L
same,LDH,24 h,245.8 IU/L
same,Na,24 h,141.2 meq/L
same,PL,24 h,154.2 mg/dL
same,RALB,24 h,3.1 g/dL
same,TBIL,24 h,0.016 mg/dL
same,TC,24 h,79.6 mg/dL
same,TG,24 h,79.2 mg/dL
same,TP,24 h,5.5 g/dL
same,gamma-GTP,24 h,1.2 IU/L
